Experiments:
NO production = conditions: previous study; read-out: inhibitory activity on NO production IC50; cited from earlier work
[1] = test system: NO production in LPS-stimulated RAW264.7 cells; assay: Inhibitory assay of NO production in LPS-stimulated RAW264.7 cells; assay type: cell-based; conditions: Mus musculus, LPS 5 μg/mL, 24 h treatment
Protocol: (§1) Macrophages may be a potential therapeutic target for inflammatory diseases. Activated macrophages release pro-inflammatory mediators, such as NO, reactive oxygen, interleukin-1 beta, tumor necrosis factor-alpha and other inflammatory mediators, which play important roles in biological defense. […] In the present study, four limonoids and N^G-monomethyl-L-arginine acetate (L-NMMA), an inducible nitric oxide synthase (iNOS) inhibitor, were evaluated for their inhibitory effects on NO production in LPS-stimulated RAW264.7 cells (Figure 5). To determine safe concentrations, the cytotoxicities of these limonoids against RAW 264.7 were assessed by the MTT assay.
An inhibitory assay of nitric oxide production was performed according to a method reported previously with slight modifications. Briefly, RAW264.7 cells (5 × 10^4 cells in 100 μL) were seeded onto 96-well microplates and incubated for 24 h. D-MEM (100 μL) containing test samples (final concentration of 100, 30, 10 or 3 μM) dissolved in DMSO (final concentration 0.2%) and LPS (final concentration of 5 μg/mL) were added. After cells had been treated for 24 h, 50 μL of 0.1% N-(1-naphtyl)ethylenediamine in H2O and 50 μL of 1% sulfanilamide in 5% phosphoric acid were added. After being incubated for 30 min, the absorbance of each well was read at 570 nm using a microplate reader. […]

RAW264.7 cells = assay: RAW264.7 cell proliferation / cytotoxicity by MTT assay; assay type: cell-based
Protocol: as §1
RAW264.7 cell proliferation was examined according to a method reported previously with few modifications. Briefly, RAW264.7 cells (5 × 10^4 cells in 100 μL) were seeded onto 96-well microplates and incubated for 24 h. D-MEM (100 μL) containing test samples (final concentration of 100, 30, 10 or 3 μM) dissolved in DMSO (final concentration 0.2%) was added. After the cells had been treated for 24 h, the MTT solution was added. After 3 h of incubation, 20% sodium dodecyl sulfate (SDS) in 0.1 M HCl was added to dissolve the formazan produced by the cells. The absorbance of each well was read at 570 nm using a microplate reader. The optical density of vehicle control cells was assumed to be 100%.

[2] = at the effective concentration 10 μM

In the case of “6α-acetoxy-7α-deacetoxy-7α-hydroxygedunin”, the IC50 (NO production) is given as 9.4 µM.
In the case of CC(=O)O[C@H]1[C@@H](OC(C)=O)[C@]2(C)[C@H](CC[C@@]3(C)[C@H](c4ccoc4)OC(=O)[C@H]4O[C@@]423)[C@@]2(C)C=CC(=O)C(C)(C)[C@H]12 [6α-acetoxygedunin], the IC50 (NO production) is given as 7.9 µM.
In the case of CC(=O)O[C@@H]1[C@H](O)C2C(C)(C)C(=O)C=C[C@]2(C)C2CC[C@@]3(C)[C@H](c4ccoc4)OC(=O)[C@H]4O[C@]43[C@@]21C (stereo partly drawn) [6α-hydroxygedunin], the IC50 (NO production) is listed as 19.1 µM.
In the case of CC1(C)C(=O)C=CC2(C)C1CC(O)C1(C)C2CCC2(C)C(c3ccoc3)OC(=O)C3OC321 (stereo not drawn) [7-deacetoxy-7-hydroxygedunin], the IC50 (NO production) is listed as 8.4 µM.
For CC1(C)C(=O)C=CC2(C)C1CC(=O)C1(C)C2CCC2(C)C(c3ccoc3)OC(=O)C3OC321 (stereo not drawn) [7-deacetoxy-7-oxogedunin], the IC50 (NO production) is listed as 12.8 µM.
For COC(=O)CC1C(C)(C)C(OC(=O)C(C)C)C2(O)CC3(O)C4=CC(=O)OC(c5ccoc5)C4(C)CCC3C1(C)C2=O (stereo not drawn) [Compound 1, Carapanolide T], the melting point was 83 to 85 °C, the IC50 [1] was 22 µM and the “cytotoxicity against RAW264.7” value (RAW264.7 cells; at 30 μM) was “low cytotoxicity”. The “cytotoxicity against RAW264.7” value (RAW264.7 cells; [2]) was “not at the effective concentration”.
For CC=C(C)C(=O)OC1C2(O)CC3(O)C4=CC(=O)OC(c5ccoc5)C4(C)CCC3C(C)(C2=O)C(CC(=O)OC)C1(C)C (stereo not drawn) [Compound 2, Carapanolide U], the melting point was 133 to 136 °C, the IC50 [1] was 23.3 µM and the “cytotoxicity against RAW264.7” value (RAW264.7 cells; at 1–30 μM) was “did not show cytotoxicities”. The “cytotoxicity against RAW264.7” value (RAW264.7 cells; [2]) was “not at an effective concentration”.
For CC(=O)O[C@@H]1C[C@H]2C(C)(C)C(=O)C=C[C@]2(C)[C@H]2CC[C@@]3(C)[C@H](c4ccoc4)OC(=O)[C@H]4O[C@]43[C@@]21C [gedunin], the IC50 (NO production) is listed as 4.6 µM.
For carapanolide J, the IC50 (NO production) is given as 37.4 µM.
